Measured values from article PMC12957839, “Antiviral activity and mechanism of purine morpholine nucleoside analogues incorporating a sulfonamide fragment” (Journal of Advanced Research, 2025).
In brackets after ≈: the same amount, converted by molar mass.

What was measured:
[1] = biological target: PMMoV CP (Octet, in vitro) (pepper mild mottle virus); experiment: BLI; Octet, in vitro; which partner was immobilised is not stated
PMMoV [2] = experiment: Antiviral activity assay against PMMoV, curative activity; assay type: in vivo, Pepper mild mottle virus (PMMoV); design: Curative activity: concentration or dose not given beside the values; conditions: against PMMoV, average of three replicates, ± standard deviation; for EC50: Pepper mild mottle virus, read-out: EC50 of curative activity
Experimental: (§1) Virions were isolated and extracted from leaves of N. benthamiana infected with PMMoV referring to the method recorded in the literature. And the inhibiting activities of C1–C38 against PMMoV were assessed with reference to the literature as well [26, 34].

PMMoV [3] = experiment: Antiviral activity assay against PMMoV, protective activity; assay type: in vivo, Pepper mild mottle virus (PMMoV); design: Protective activity: concentration or dose not given beside the values; conditions: against PMMoV, average of three replicates, ± standard deviation; for EC50: Pepper mild mottle virus, read-out: EC50 of protective activity
Experimental: as §1

PMMoV [4] = experiment: Antiviral activity assay against PMMoV, inactivating activity; assay type: in vivo, Pepper mild mottle virus (PMMoV); conditions: against PMMoV, average of three replicates, ± standard deviation; for pest or weed control at 500 µg/mL / EC50: Pepper mild mottle virus; for pest or weed control at 500 µg/mL: read-out: Inactivating activity; for EC50: read-out: EC50 of inactivating activity
Experimental: as §1

PMMoV CP [5] = biological target: T1, PMMoV CP (Pepper mild mottle virus, UniProt P69509); experiment: Microscale thermophoresis (MST) binding affinity with PMMoV CP
Experimental: The binding affinities of compounds with PMMoV CP were analyzed by MST based on the procedures delineated in the literature.

PMMoV CP [6] = biological target: T1, PMMoV CP; experiment: ABPP probe capture of PMMoV CP (Western blot), concentration dependence and competitive inhibition; assay type: binding; conditions: for capture of the 17 kDa protein from PMMoV: Western blot, identical concentration, Fig. S132; for capture of PMMoV CP: same concentration of 100 µM; for capture of PMMoV CP / labeling of PMMoV CP by probe: Fig. 1B
Source text: ABPP technology utilized its unique chemical probe strategy to selectively capture target proteins and was regarded as a well-established approach for discovering target proteins.

PMMoV CP and I3QHX5 = experiment: BiFC interaction of PMMoV CP and PMMoV CP^Y13A with I3QHX5 before and after application of C1; assay type: cell-based, N. benthamiana; conditions: addition of C1, 30, 36 and 42 hpi, Fig. 6A
Experimental: Designed primers to construct vectors of LCA and BiFC via homologous recombination. Extracted plasmids and waited for sequencing confirmation before transforming them into GV3101 (pU19). A. tumefaciens transient transformation solution (200 μM acetosyringone, 10 mM MgCl2, and 10 mM MES, pH = 5.6) was prepared to resuspend the organisms with a final OD600 of 1.0, then mixed them with equal OD600 and volume before being infiltrated into N. benthamiana of the same growth stage. […]

Row | Compound | Kd [1] | EC50 (PMMoV [2]) | Curative activity (PMMoV [2]) | EC50 (PMMoV [3]) | Protective activity (PMMoV [3]) | pest or weed control at 500 µg/mL (PMMoV [4]; at 500 µg/mL) | EC50 (PMMoV [4]) | Kd (PMMoV CP [5]) | Inactivating activity (PMMoV [4]; at 500 µg/mL) | capture of the 17 kDa protein from PMMoV (PMMoV CP [6]) | competitive inhibition of C2 labeling of PMMoV CP (PMMoV CP [6]; increasing concentrations of C1, Fig. 1C) | capture of PMMoV CP (PMMoV CP [6]) | effect on interaction of PMMoV CP and PMMoV CP^Y13A with I3QHX5 (PMMoV CP and I3QHX5) | labeling of PMMoV CP by probe (PMMoV CP [6]; concentrations of 10–50 µM) | labeling of PMMoV CP by probe (PMMoV CP [6]; concentrations reduced to 5–1 µM)
1 | I3QHX5 (Octet, in vitro) (from UniProt I3QHX5 1-485) (natural protein) | 0.013 µM | – | – | – | – | – | – | – | – | – | – | – | – | – | –
2 | CC(=O)OCC1OC(n2cnc3c(N4CCOCC4)ncnc32)C(NS(=O)(=O)c2ccc(C)cc2)C(OC(C)=O)C1OC(C)=O (stereo not shown) [C24] | – | 30.7 ± 1.2 µg/mL (≈ 47.5 µM) | 72.5 ± 2.2% | 919 ± 10.2 µg/mL (≈ 1420 µM) | 40.8 ± 3.5% | 65.1 ± 4.2% | 145 ± 4.7 µg/mL (≈ 224 µM) | 109 µM | – | – | – | – | – | – | –
3 | CC(=O)OCC1OC(n2cnc3c(N4CCOCC4)nc(Cl)nc32)C(NS(=O)(=O)c2ccc(C)cc2)C(OC(C)=O)C1OC(C)=O (stereo not shown) [C25] | – | 167 ± 5.2 µg/mL (≈ 245 µM) | 59.0 ± 3.5% | 345 ± 11.3 µg/mL (≈ 507 µM) | 52.3 ± 1.1% | 46.9 ± 1.8% | 573 ± 10.9 µg/mL (≈ 841 µM) | 264 ± 25.1 µM | – | – | – | – | – | – | –
4 | CC(=O)OCC1OC(n2cnc3c(N4CCOCC4)ncnc32)C(NS(=O)(=O)c2ccc([N+](=O)[O-])cc2)C(OC(C)=O)C1OC(C)=O (stereo not shown) [C1] | – | 17 ± 3.9 µg/mL (≈ 25.1 µM) | 73.7 ± 5.2% | 86.9 ± 8.8 µg/mL (≈ 128 µM) | 64.3 ± 2.8% | 76.4% | 37 ± 4.4 µg/mL (≈ 54.6 µM) | 1.5 µM | 76.4 ± 2.6% | neither C1 nor DMSO exhibited such a capacity | competitively inhibited the interaction of C2 with PMMoV CP | could not | affected the interaction | – | –
5 | C#CCN1CCN(c2ncnc3c2ncn3C2OC(COC(C)=O)C(OC(C)=O)C(OC(C)=O)C2NS(=O)(=O)c2ccc([N+](=O)[O-])cc2)CC1 (stereo not shown) [C2] | – | 66.6 ± 4.5 µg/mL (≈ 93.2 µM) | 67.3 ± 4.3% | 64.5 ± 4.5 µg/mL (≈ 90.2 µM) | 65.9 ± 3.0% | 67.4 ± 3.9% | 40.7 ± 2.3 µg/mL (≈ 56.9 µM) | – | – | capable of capturing the protein with a molecular weight of 17 kDa | – | could capture PMMoV CP | – | successfully labeled protein | failed to do so
6 | CC(=O)OCC1OC(n2cnc3c(N4CCOCC4)ncnc32)C(NS(=O)(=O)c2ccc(OC(F)(F)F)cc2)C(OC(C)=O)C1OC(C)=O (stereo not shown) [C33] | – | 32 ± 1 µg/mL (≈ 44.7 µM) | 71.5 ± 4.4% | 305 ± 12.2 µg/mL (≈ 426 µM) | 53.0 ± 3.7% | 54.4 ± 3.3% | 176 ± 11.3 µg/mL (≈ 246 µM) | – | – | – | – | – | – | – | –
7 | CC(=O)OCC1OC(n2cnc3c(N4CCOCC4)ncnc32)C(NS(=O)(=O)c2ccc(Br)cc2)C(OC(C)=O)C1OC(C)=O (stereo not shown) [C15] | – | 61 ± 5.4 µg/mL (≈ 85.7 µM) | 65.6 ± 3.4% | 103 ± 6.4 µg/mL (≈ 145 µM) | 62.5 ± 3.3% | 47.7 ± 0.69% | 593 ± 13.7 µg/mL (≈ 833 µM) | – | – | – | – | – | – | – | –
8 | CC(=O)OCC1OC(n2cnc3c(N4CCOCC4)nc(Cl)nc32)C(NS(=O)(=O)c2ccc(F)cc2)C(OC(C)=O)C1OC(C)=O (stereo not shown) [C32] | – | 23.8 ± 5.5 µg/mL (≈ 34.7 µM) | 68.0 ± 2.7% | 28.7 ± 4.4 µg/mL (≈ 41.9 µM) | 68.9 ± 2.0% | 67.9 ± 5.1% | 38 ± 4.4 µg/mL (≈ 55.5 µM) | – | – | – | – | – | – | – | –
9 | COc1ccc(S(=O)(=O)NC2C(OC(C)=O)C(OC(C)=O)C(COC(C)=O)OC2n2cnc3c(N4CCOCC4)ncnc32)cc1 (stereo not shown) [C12] | – | 53 ± 2.1 µg/mL (≈ 80 µM) | 63.5 ± 2.6% | 134 ± 7.4 µg/mL (≈ 203 µM) | 65.6 ± 4.7% | 71.5 ± 5% | 43.1 ± 1.1 µg/mL (≈ 65 µM) | – | – | – | – | – | – | – | –
10 | CC(=O)OCC1OC(n2cnc3c(N4CCOCC4)ncnc32)C(NS(=O)(=O)c2c(C)cc(C)cc2C)C(OC(C)=O)C1OC(C)=O (stereo not shown) [C21] | – | 61.6 ± 5.3 µg/mL (≈ 91.3 µM) | 66.9 ± 1.8% | 74 ± 5.1 µg/mL (≈ 110 µM) | 60.7 ± 2.5% | 68.7 ± 4.5% | 83.2 ± 3.7 µg/mL (≈ 123 µM) | – | – | – | – | – | – | – | –
11 | O=S(=O)(NC1C(O)C(O)C(CO)OC1n1cnc2c(N3CCOCC3)nc(F)nc21)c1ccc(OC(F)(F)F)cc1 (stereo not shown) [C38] | – | 442 ± 12.6 µg/mL (≈ 726 µM) | 51.54 ± 0.3% | 474 ± 27.7 µg/mL (≈ 779 µM) | 46.5 ± 1.0% | 51.6 ± 0.5% | 421 ± 7.4 µg/mL (≈ 692 µM) | – | – | – | – | – | – | – | –
12 | CC(=O)OCC1OC(n2cnc3c(N4CCOCC4)ncnc32)C(NS(=O)(=O)c2ccccc2[N+](=O)[O-])C(OC(C)=O)C1OC(C)=O (stereo not shown) [C6] | – | 132 ± 9.4 µg/mL (≈ 194 µM) | 67.0 ± 4.9% | 358 ± 12.3 µg/mL (≈ 528 µM) | 52.0 ± 2.3% | 60.8 ± 1.9% | 182 ± 7.8 µg/mL (≈ 268 µM) | – | – | – | – | – | – | – | –
